Read-outs that look alike come from different tables or passages of the source.
Legend:
[1] = target: AQ variant of truncated human STING protein, amino acids 155-379 (Homo sapiens (Human), UniProt Q86WV6, G230A/H232R/R293Q); test: Human AQ STING [3H] 2′,3′-cGAMP scintillation proximity competition binding assay
From the text: (§1) A human STING [^3H] 2′,3′-cGAMP scintillation proximity competition binding assay was utilized to detect binding of compounds to STING protein. […] The protein encoding plasmid contained a HIS tag, followed by an Avi tag and then a SUMO tag, which were followed by the STING coding sequence within the pET-28a (+) vector. The plasmid was transfected into a BL21 (DE3)/BirA E. coli co-expression strain. Protein was purified from the bacterial lysate using a cobalt-affinity column. The purified protein was dialyzed against PBS and then 20% glycerol was added prior to storage at −80° C.
(§2) 2′,3′-cGAMP in assay buffer (50 mM Tris pH 7.5, 100 mM NaCl, 0.1% Fatty Acid Free BSA). Test compounds (2.5 μL) were added to the plate first followed by a 25 μL mixture of STING protein, streptavidin PVT SPA beads (Perkin Elmer) and 10 μL [^3H] 2′,3′-cGAMP. Plates were incubated at room temperature for 18 hrs and read on a Wallac MicroBeta TriLux (Perkin Elmer).

[2] = target: wild-type (WT) truncated human STING protein, amino acids 155-379 (Homo sapiens (Human), UniProt Q86WV6, H232R); test: Human WT STING [3H] 2′,3′-cGAMP scintillation proximity competition binding assay
From the text: as §1, §2

[3] = target: murine STING protein (amino acids 154-378) (Mus musculus (Mouse), UniProt Q3TBT3); test: Murine STING [3H] 2′,3′-cGAMP scintillation proximity competition binding assay
[4] = system: STING signaling, RAW-Dual reporter cells; test: Measurement of mouse IFN-β (ELISA); type: cell-based
From the text: Mouse Interferon-β (IFN-β) in the supernatants of murine macrophages treated with STING activators was quantified using sandwich enzyme linked immunosorbent assay (ELISA). Briefly, IFN-β binds to plates coated with antibody and detection is accomplished using a detection antibody followed by streptavidin conjugated to horseradish peroxidase. Tetramethyl-benzidine is used as the substrate in this kit (PBL Assay Science). […] In this invention, mouse IFN-β ELISA is used to determine the potency of compound on STING pathway activation in mouse macrophages.
Murine macrophage derived cell line RAW-Dual reporter cells (Invivogen) were used to measure the IFN-β produced by STING signaling activation. Briefly, 20,000 cells in 27 μL were seeded into tissue culture treated 384-well plate that contained 3 μL of test compound. Cells were incubated at 37° C., in a 5% CO2 incubator for 5.5 hours. Supernatants from treated cells were diluted 20-fold and prior to measurement of IFN-β levels using ELISA kit (PBL Assay Science). 100 μL of diluted sample was added to ELISA plate. Plates were incubated at RT for 1 hour with shaking at 650 rpm. Post incubation, samples were aspirated from wells and the wells were washed 4 times. Diluted antibody (50 μL) was added to plates and incubated at RT for 30 minutes with shaking, followed by aspiration of antibody and 4× washes. Diluted HRP (horseradish peroxidase) solution (50 μL) was added and incubated for 10 minutes, followed by aspiration of the solution and 4× wash steps. After the final wash steps, plates were incubated with 100 μL of TMB (tetramethyl benzidine) substrate for 10 minutes, followed by addition of 100 μL of stop solution and plates were read on Envision plate reader for optical density.

[5] = system: STING pathway, THP1 cells; test: Human IFN-α/β induction assay (THP1 supernatants on HEK-Blue IFN-α/β reporter cells); type: cell-based; settings: THP1 cells 5 hrs, HEK-Blue reporter cells 24 hrs
Experimental: Genetically engineered human type-1 Interferons (IFN-α/β) sensor cells-HEK Blue™ IFNα/β cells (Invivogen) were employed to measure the type-1 IFNs produced by THP1 cells that are treated with activators of STING. The human embryonic (HEK) Blue™ cells are specially designed to monitor the activation of JAK/STAT pathway induced by type 1 IFNs. Briefly, THP1 cells are treated with compounds for 5 hrs. In the second step, supernatants of THP1 cells are transferred to HEK Blue™ IFNα/β reporter cells and incubated for 24 hrs. The secreted embryonic alkaline phosphatase (SEAP) activity in the supernatants of HEK blue IFNα/3 reporter cells is measured and used to determine the quantities of IFNs.
HEK-Blue IFN-α/β reporter cells (Invivogen) were used to measure the secretion of IFN-α/β into culture supernatants of THP1 cells following STING pathway activation. In the first step, THP1 cells were cultured in presence of STING activators for 5 hrs at 37° C., in a 5% CO2 tissue culture incubator, which facilitates the release of IFN-α/β into the supernatants. In the second step, cell supernatants from THP1 cells were transferred to HEK-Blue IFN-α/β reporter cells and incubated at 37° C., in a 5% CO2 incubator for 24 hrs. HEK-Blue IFN-α/β reporter cells are specifically designed to monitor the activation of JAK-STAT pathway activation by type 1 IFNs. These cells express a secreted embryonic alkaline phosphatase (SEAP) reporter gene under the control of ISG54 promoter, which is a well-known interferon stimulatory gene activated by type 1 IFNs. Upon IFN-α/β stimulation, HEK-Blue IFN-α/β reporter cells activate the JAK-STAT pathway and subsequently the expression of the reporter gene. SEAP which is secreted in the supernatant is easily detectable using alkaline phosphatase detection medium (Quanti-Blue reagent from Invivogen).
These assays were run by adding 2 μL of compound stock solution to tissue culture treated 384-well plates with electronic pipettes. Compounds were diluted in autoclaved sterile water, initially spotted on the intermediate dilution plate and then to the assay plate. […]

[6] = system: CT-26 tumor; test: CT-26 tumor bearing mice, intra-tumoral treatment and re-challenge; settings: 50 μg intra-tumoral Days 0, 3, 7
[7] = read-out: Human AQ Binding IC50
[8] = read-out: Human WT Binding IC50

Chain of murine STING protein (amino acids 154-378) (Q3TBT3 154-378): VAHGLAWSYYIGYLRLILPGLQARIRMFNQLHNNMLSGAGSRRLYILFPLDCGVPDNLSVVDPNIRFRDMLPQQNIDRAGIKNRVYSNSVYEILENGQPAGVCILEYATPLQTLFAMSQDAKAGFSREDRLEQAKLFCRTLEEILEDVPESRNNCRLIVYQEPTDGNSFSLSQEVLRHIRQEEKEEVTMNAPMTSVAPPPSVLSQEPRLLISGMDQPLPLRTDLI
Chain of wild-type (WT) truncated human STING protein, amino acids 155-379 (Q86WV6 155-379 H232R): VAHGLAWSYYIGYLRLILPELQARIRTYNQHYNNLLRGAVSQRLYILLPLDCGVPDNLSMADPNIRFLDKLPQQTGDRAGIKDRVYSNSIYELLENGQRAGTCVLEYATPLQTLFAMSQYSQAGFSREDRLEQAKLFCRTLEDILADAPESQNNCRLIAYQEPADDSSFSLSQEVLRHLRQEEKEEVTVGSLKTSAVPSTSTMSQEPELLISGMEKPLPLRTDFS
Chain of AQ variant of truncated human STING protein, amino acids 155-379 (Q86WV6 155-379 G230A/H232R/R293Q): as the sequence (Q86WV6 155-379 H232R) above, with G76A, R139Q counted along it

SMILES: Nc1nc2c(ncn2[C@@H]2O[C@@H]3COP(=O)(S)OCCn4c(nc5cncnc54)COP(=O)(S)O[C@@H]2C3(F)F)c(=O)[nH]1 (stereo partly drawn) [Example 36D, (1S,21R,23R)-23-(2-Amino-6-oxo-6,9-dihydro-1H-purin-9-yl)-24,24-difluoro-3,18-disulfanyl-2,4,17,19,22-pentaoxa-7,10,12,14-tetraaza-3lambda5,18lambda5-diphosphatetracyclo[19.2.1.06,14.08,13]tetracosa-6,8,10,12-tetraene-3,18-dione]
- IC50 [1, 7]: 1 to 9.99 µM
- IC50 [2, 8]: 10 to 100 µM
- IC50 ([3]; read-out: Murine Binding IC50): < 1 µM

SMILES: Nc1nc2c(ncn2[C@@H]2O[C@@H]3COP(=O)(O)OCCn4c(nc5cncnc54)COP(=O)(O)O[C@@H]2[C@@H]3O)c(=O)[nH]1 [Example 10, (1R,21R,23R,24R)-23-(2-Amino-6-oxo-6,9-dihydro-1H-purin-9-yl)-3,18,24-trihydroxy-2,4,17,19,22-pentaoxa-7,10,12,14-tetraaza-3lambda5,18lambda5-diphosphatetracyclo[19.2.1.06,14.08,13]tetracosa-6,8,10,12-tetraene-3,18-dione]
- IC50 [1, 7]: 1 to 9.99 µM
- IC50 [2, 8]: 10 to 100 µM
- IC50 ([3]; read-out: Murine Binding IC50): < 1 µM

SMILES: Nc1ncnc2c1ncn2[C@@H]1O[C@@H]2COP(=O)(S)OCCn3c(nc4cncnc43)COP(=O)(S)O[C@@H]1[C@@H]2O (stereo partly drawn) [Example 8, (1R,21R,23R,24R)-23-(6-Amino-9H-purin-9-yl)-24-hydroxy-3,18-disulfanyl-2,4,17,19,22-pentaoxa-7,10,12,14-tetraaza-3lambda5,18lambda5-diphosphatetracyclo[19.2.1.06,14.08,13]tetracosa-6,8(13),9,11-tetraene-3,18-dione]
- IC50 [1, 7]: 10 to 100 µM
- IC50 [2, 8]: 10 to 100 µM
- IC50 ([3]; read-out: Murine Binding IC50): 1 to 9.99 µM

SMILES: Nc1nc2c(ncn2[C@@H]2O[C@@H]3COP(=O)(O)O[C@@H]4[C@H](O)[C@@H](COP(=O)(O)O[C@@H]2[C@@H]3O)O[C@H]4n2cnc3c(N)ncnc32)c(=O)[nH]1 [2′,2′-cGAMP, reference compound]
- IC50 ([1]; reference compound, unit printed as 'M' (sic), read-out: IC50 using the AQ STING protein): 0.098 µM
- IC50 ([2]; reference compound, read-out: IC50 using the WT STING protein): 0.562 µM
- IC50 ([3]; reference compound, read-out: IC50, murine STING binding): 0.055 µM

SMILES: CO[C@H]1[C@H]2OP(=O)(S)OCc3nc4cncnc4n3CCOP(=O)(S)OC[C@H]1O[C@H]2n1cnc2c(=O)[nH]c(N)nc21 (single isomer, unassigned) [Example 27B]
- IC50 [1, 7]: 1 to 9.99 µM
- IC50 [2, 8]: 10 to 100 µM
- IC50 ([3]; read-out: Murine Binding IC50): < 1 µM

SMILES: Nc1nc2c(ncn2[C@@H]2O[C@@H]3COP(=O)(S)OCCn4c(nc5c(N)ncnc54)COP(=O)(S)O[C@@H]2[C@@H]3F)c(=O)[nH]1 (single isomer, unassigned) [Example 7C]
- IC50 [1, 7]: < 1 µM
- IC50 [2, 8]: < 1 µM
- IC50 ([3]; read-out: Murine Binding IC50): < 1 µM

SMILES: Nc1nc2c(ncn2[C@@H]2O[C@@H]3COP(=O)(S)OCCn4c(nc5c(N)ncnc54)COP(=O)(S)O[C@@H]2[C@@H]3F)c(=O)[nH]1 (single isomer, unassigned) [Example 7D]
- IC50 [1, 7]: < 1 µM
- IC50 [2, 8]: 1 to 9.99 µM
- IC50 ([3]; read-out: Murine Binding IC50): < 1 µM

SMILES: CO[C@H]1[C@H]2OP(=O)(S)OCc3nc4cncnc4n3CCOP(=O)(S)OC[C@H]1O[C@H]2n1cnc2c(=O)[nH]c(N)nc21 (single isomer, unassigned) [Example 27C]
- IC50 [1, 7]: < 1 µM
- IC50 [2, 8]: < 1 µM
- IC50 ([3]; read-out: Murine Binding IC50): < 1 µM

SMILES: Nc1nc2c(ncn2[C@@H]2O[C@@H]3COP(=O)(S)OCCn4c(nc5c(N)ncnc54)COP(=O)(S)O[C@@H]2[C@@H]3F)c(=O)[nH]1 (single isomer, unassigned) [Example 7A]
- IC50 [1, 7]: 1 to 9.99 µM
- IC50 [2, 8]: 10 to 100 µM
- IC50 ([3]; read-out: Murine Binding IC50): < 1 µM

SMILES: Nc1nc2c(ncn2[C@@H]2O[C@@H]3COP(=O)(S)OCCn4c(nc5c(N)ncnc54)COP(=O)(S)O[C@@H]2[C@@H]3F)c(=O)[nH]1 (single isomer, unassigned) [Example 7B]
- IC50 [1, 7]: 1 to 9.99 µM
- IC50 [2, 8]: 10 to 100 µM
- IC50 ([3]; read-out: Murine Binding IC50): < 1 µM

SMILES: Nc1nc2ncn([C@@H]3O[C@@H]4COP(=O)(S)OCCn5c(nc6cc(Cl)cnc65)COP(=O)(S)O[C@@H]3[C@@H]4F)c2c(=O)[nH]1 (single isomer, unassigned) [Example 13B]
- IC50 [1, 7]: 10 to 100 µM
- IC50 [2, 8]: 10 to 100 µM
- IC50 ([3]; read-out: Murine Binding IC50): 1 to 9.99 µM

SMILES: Nc1ncnc2c1ncn2[C@@H]1O[C@@H]2COP(=O)([S-])O[C@@H]3[C@H](O)[C@@H](COP([O-])(=S)O[C@H]2[C@H]1O)O[C@H]3n1cnc2c(N)ncnc21.[Na+].[Na+] (stereo partly drawn) [ADU-S100, reference compound]
- EC50 [4]: > 5 µM
- EC50 [5]: > 10 µM
- Number of surviving mice ([6]; Day 0): 10/10
- Number of surviving mice ([6]; Day 3): 10/10
- Number of surviving mice ([6]; Day 7): 10/10
- Number of surviving mice ([6]; Day 10): 10/10
- Number of surviving mice ([6]; Day 14): 10/10
- Number of surviving mice ([6]; Day 17): 10/10
- Number of surviving mice ([6]; Day 20): 10/10
- Number of surviving mice ([6]; Day 23): 7/10
- Number of surviving mice ([6]; Day 35): 1/10
- animals with complete regression of the tumors ([6]; by Day 30): None

SMILES: Nc1nc2c(ncn2[C@@H]2O[C@@H]3COP(=O)(S)OCCCn4c(nc5cncnc54)COP(=O)(S)O[C@@H]2[C@@H]3O)c(=O)[nH]1 (stereo partly drawn) [Example 9, (1R,22R,24R,25R)-24-(2-Amino-6-oxo-6,9-dihydro-1H-purin-9-yl)-25-hydroxy-3,19-disulfanyl-2,4,18,20,23-pentaoxa-7,10,12,14-tetraaza-3lambda5,19lambda5-diphosphatetracyclo[20.2.1.06,14.08,13]pentacosa-6,8,10,12-tetraene-3,19-dione]
- IC50 [1, 7]: 1 to 9.99 µM
- IC50 [2, 8]: 10 to 100 µM
- IC50 ([3]; read-out: Murine Binding IC50): 1 to 9.99 µM

SMILES: Nc1nc2c(ncn2[C@@H]2O[C@@H]3COP(=O)(S)OCCn4c(nc5cncnc54)COP(=O)(S)O[C@@H]2[C@@H]3F)c(=O)[nH]1 (single isomer, unassigned) [Example 1D]
- IC50 [1, 7]: < 1 µM
- EC50 [4]: > 5 µM
- EC50 ([5]; Homo sapiens, THP-1): < 5 µM

SMILES: COCc1ncc2nc3n(c2n1)CCOP(=O)(S)OC[C@H]1O[C@@H](n2cnc4c(=O)[nH]c(N)nc42)[C@H](OP(=O)(S)OC3)[C@@H]1F (stereo partly drawn) [Example 40C, (1S,21R,23R,24R)-23-(2-Amino-6-oxo-6,9-dihydro-H-purin-9-yl)-24-fluoro-11-(methoxymethyl)-3,18-disulfanyl-2,4,17,19,22-pentaoxa-7,10,12,14-tetraaza-3lambda5,18lambda5-diphosphatetracyclo[19.2.1.06,14.08,13]tetracosa-6,8,10,12-tetraene-3,18-dione]
- IC50 [1, 7]: 1 to 9.99 µM
- IC50 [2, 8]: 10 to 100 µM
- IC50 ([3]; read-out: Murine Binding IC50): < 1 µM

SMILES: CO[C@H]1[C@H]2OP(=O)(S)OCc3nc4cncnc4n3CCOP(=O)(S)OC[C@H]1O[C@H]2n1cnc2c(=O)[nH]c(N)nc21 (single isomer, unassigned) [Example 27D]
- IC50 [1, 7]: < 1 µM
- IC50 [2, 8]: 1 to 9.99 µM
- IC50 ([3]; read-out: Murine Binding IC50): < 1 µM

SMILES: Nc1nc2c(ncn2[C@@H]2O[C@@H]3COP(=O)(O)OCCn4c(nc5cncnc54)COP(=O)(O)O[C@@H]2[C@@H]3F)c(=O)[nH]1 [Example 4, (1S,21R,23R,24R)-23-(2-Amino-6-oxo-6,9-dihydro-1H-purin-9-yl)-24-fluoro-3,18-dihydroxy-2,4,17,19,22-pentaoxa-7,10,12,14-tetraaza-3lambda5,18lambda5-diphosphatetracyclo[19.2.1.06,14.08,13]tetracosa-6,8(13),9,11-tetraene-3,18-dione]
- IC50 [1, 7]: 1 to 9.99 µM
- IC50 [2, 8]: 10 to 100 µM
- IC50 ([3]; read-out: Murine Binding IC50): < 1 µM

From patent publication US11161864B2, “Sting agonists” (Venenum Biodesign, LLC, priority 2018, dated 2021)
